Experimental data taken from paper PMC11853379, “Glioblastoma Cell Migration, Invasion and Vasculogenic Mimicry Downmodulated by Novel uPAcyclin Derivatives” (Cells, 2025).
Positions of bridges follow the written chain, without caps; N, C: chain ends. Residues, ends and D or L forms follow the SMILES beside them.

Tests used:
GBM = settings: surgical resection, radiotherapy and concomitant Temozolomide; extended from 12.1 months; cited from earlier work
From the text: Glioblastoma (GBM) is the most common malignant primary brain tumor, characterized by micro-vascular proliferation, cellular necrosis and the pronounced invasiveness of surrounding parenchima with high recurrency and a high mortality rate. […] In particular, surgery still represents an important pillar of treat ...

U87-MG cells = type: cell-based, human; settings: for inhibitory activity on cell migration, comparison (in words): U87-MG migration toward 5% FBS
Experimental: The migration and invasion assays were performed with Boyden chambers, according to De Vincenzo et al., using 11 × 10^4 U87-MG and U251-MG glioblastoma cells/sample pre-treated for 40 min at 37 °C with the indicated effectors and then allowed to migrate for 3 h or to invade for 5 h at 37 °C toward 5% FBS in DMEM/0.1% BSA. The migrated or invaded cells were reported as a percentage of basal random migration or invasion and analyzed as reported in the Statistical Analyses section. The migration and invasion experiments were conducted in triplicate.
(§1) Figure 1 Binding of Ala peptides to U87-MG cells and effect of uPAcyclin and Ala peptides on U87-MG cellular migration. (A) A total of 2 × 10^6 U87-MG cells were pre-incubated for 30 min at 4 °C with increasing concentrations of unlabeled uPAcyclin and Ala peptides and then exposed to 50 nM of FITC-uPAcyclin for 2 h at 4 °C. Cell surface-associated fluorescence, as percentage of the sample with […], is shown. Experiments were carried out in duplicate, and the data shown here are representative of three independent experiments. (B) 11 × 10^4 U87-MG cells/sample were pre-treated for 40 min at 37 °C with increasing concentrations of uPAcyclin or the indicated Ala peptides and then assayed in Boyden chambers for 5% FBS-dependent migration for 3 h at 37 °C. At the end of incubation, the filters were processed as described in the Methods section. For clarity here and in the following Figures, Ala-x indicates the peptide with substituted x-position. For both assays, the p-values are in the range of 0.005 ≤ p ≤ 0.001, apart from [Ala1]uPAcyclin in the migration assay with p ≤ 0.05.
Alterations of the amino acid sequence may affect the peptide structure and may, in turn, alter its function. To test for differences in the inhibitory activity of the Ala-substituted peptides, U87-MG glioblastoma cells were subjected to a directional migration assay in Boyden chambers towards FBS, in the presence or in the absence of the indicated concentrations of uPAcyclin or one of its Ala-scan derivatives (Figure 1B).

[1] = biological target: T1, integrin αV receptors on the GBM cell surface (U87-MG cells) (Homo sapiens, UniProt P06756); test: Receptor binding assay: displacement of FITC-uPAcyclin from U87-MG living cells; settings: for increase of binding affinity compared to uPAcyclin / binding affinity compared to uPAcyclin (in words): U87-MG cells; for binding affinity compared to uPAcyclin (in words): displacement of FITC-uPAcyclin
T1 construct: endogenous in cells; host or cells: U87-MG human glioblastoma cells (living, acid-treated, 4 °C)
T1 sequence (P06756 31-889 limits assumed): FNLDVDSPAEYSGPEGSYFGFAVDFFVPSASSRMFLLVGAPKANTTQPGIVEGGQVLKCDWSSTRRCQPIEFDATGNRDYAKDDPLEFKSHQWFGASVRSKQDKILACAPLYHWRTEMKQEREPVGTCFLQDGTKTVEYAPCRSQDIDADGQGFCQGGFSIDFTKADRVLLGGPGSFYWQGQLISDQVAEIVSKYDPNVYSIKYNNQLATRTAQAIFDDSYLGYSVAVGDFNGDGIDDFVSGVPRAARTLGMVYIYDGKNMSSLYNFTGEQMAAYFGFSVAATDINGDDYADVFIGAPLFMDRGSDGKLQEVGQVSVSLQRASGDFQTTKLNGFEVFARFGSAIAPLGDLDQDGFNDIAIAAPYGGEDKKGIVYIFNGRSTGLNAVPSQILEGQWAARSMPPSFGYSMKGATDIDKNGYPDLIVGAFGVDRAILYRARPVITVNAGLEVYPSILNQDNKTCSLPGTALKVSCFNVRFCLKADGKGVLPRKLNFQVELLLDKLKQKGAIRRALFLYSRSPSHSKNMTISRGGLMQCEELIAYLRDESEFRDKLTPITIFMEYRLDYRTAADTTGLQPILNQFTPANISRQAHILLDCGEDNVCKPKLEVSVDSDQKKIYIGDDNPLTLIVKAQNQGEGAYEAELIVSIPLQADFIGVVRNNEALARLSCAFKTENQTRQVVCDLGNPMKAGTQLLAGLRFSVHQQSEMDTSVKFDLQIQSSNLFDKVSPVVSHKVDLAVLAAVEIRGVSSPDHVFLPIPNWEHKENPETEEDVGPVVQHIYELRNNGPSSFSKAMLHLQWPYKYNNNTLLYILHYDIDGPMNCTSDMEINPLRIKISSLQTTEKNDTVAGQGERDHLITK
T1 sequence (P06756 891-1048 limits assumed): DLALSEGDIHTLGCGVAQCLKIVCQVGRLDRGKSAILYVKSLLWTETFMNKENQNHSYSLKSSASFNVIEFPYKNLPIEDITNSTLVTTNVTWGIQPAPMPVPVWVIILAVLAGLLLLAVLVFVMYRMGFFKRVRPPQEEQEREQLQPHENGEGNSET
Experimental: The U87-MG and U251-MG cell lines were harvested and acid-treated, as described. Briefly, 2 × 10^6 cells/sample were pre-incubated for 30 min at 4 °C with uPAcyclin and Ala peptides and subsequently exposed to 50 nM FITC-uPAcyclin for 2 h at 4 °C, as described. The experiments were performed three times, with duplicate samples, and analyzed as reported in the statistical analysis.
This assay confirmed that FITC-uPAcyclin binds specifically to both GBM cell lines and to the HEK-293/αV, whereas little interaction is detected with HEK-293 cells (Supporting Information, Table S7). […] To investigate the ability of novel Ala-scan peptides to compete with uPAcyclin for binding to integrin αV receptors on the GBM cell surface, the specific interaction of FITC-conjugated uPAcyclin with U87-MG living cells was tested via a receptor binding assay. U87-MG GBM cells were pre-incubated with increasing concentrations of unlabeled Ala peptides and then exposed to FITC-uPAcyclin (Figure 1A). […] When considering the relative Kdapp of uPAcyclin variants, it can be inferred that the replacement either of each of the three prolines (Pro^2, Pro^5, Pro^6) or Lys^1 increases the binding affinity of the resulting peptide compared to uPAcyclin. In contrast, the Ala mutation of other residues is detrimental to the peptide binding affinity.
as §1

Row | SMILES | median overall survival (GBM) | IC50 of migration lower / inhibitory activity higher than parental uPAcyclin (U87-MG cells; U87-MG migration) | inhibitory activity on cell migration, comparison (in words) (U87-MG cells) | increase of binding affinity compared to uPAcyclin [1] | binding affinity compared to uPAcyclin (in words) [1] | improvement in binding compared to parental uPAcyclin ([1]; GBM cells)
1 | Cn1nnc2c(C(N)=O)ncn2c1=O [Temozolomide] | 14.6 months | – | – | – | – | –
2 | CC(=O)N[C@@H](CCCCN)C(=O)N[C@@H](C)C(=O)N[C@H]1CCC(=O)NCCCC[C@@H](C(N)=O)NC(=O)[C@H](CC(C)C)NC(=O)[C@H](CCC(=O)O)NC(=O)[C@H](CCC(=O)O)NC(=O)[C@@H]2CCCN2C(=O)[C@@H]2CCCN2C(=O)[C@H](CO)NC1=O [[Ala^2]uPAcyclin] (Ac-KAESPPEELK-NH2; lactam 3-10) | – | about 10 fold | strong inhibitors | about 1 log | definitely higher than that of the parental uPAcyclin | –
3 | CC(=O)N[C@@H](CCCCN)C(=O)N1CCC[C@H]1C(=O)N[C@H]1CCC(=O)NCCCC[C@@H](C(N)=O)NC(=O)[C@H](CC(C)C)NC(=O)[C@H](CCC(=O)O)NC(=O)[C@H](CCC(=O)O)NC(=O)[C@@H]2CCCN2C(=O)[C@H](C)NC(=O)[C@H](CO)NC1=O [[Ala^5]uPAcyclin] (Ac-KPESAPEELK-NH2; lactam 3-10) | – | – | strong inhibitors | about 1 log | definitely higher than that of the parental uPAcyclin | 10 fold
